Measurements as given in patent US9593305B2, “Differentiation of pluripotent stem cells” (Janssen Biotech, Inc., priority 2008, dated 2017).

Test system: H1 human embryonic stem cells
Experiment: Single-cell monolayer assay with EGF/FGF4, serum free, no activin A (Example 10, Table 10)
Format: cell-based
Experimental: Briefly, clusters of H1 human embryonic stem cells were grown on reduced growth factor […]™ (Invitrogen; Cat #356231)-coated tissue culture plastic. Cultures were treated with Accutase (Sigma; Cat #A6964), using equivalent volumes of […] surface area for 5 minutes at 37° C., then gently resuspended, pelleted by centrifugation, and resuspended in MEF conditioned medium for counting. For assay seeding, cells were plated at 50,000 cells/cm^2 on reduced growth factor […]™-coated 96-well black plates (Packard ViewPlates; Cat #6005182) using volumes of 100 μl/well. Cells were allowed to attach and recover log phase growth over a 3 to 5 day period, feeding daily with MEF conditioned medium supplemented with 8 ng/ml bFGF (R&D Systems; Cat #233-FB). Plates were maintained at 37° C., 5% CO2 in a humidified box throughout the duration of assay.
Stocks of EGF and FGF4 were prepared in a 96-well polypropylene plate (Corning, Inc.; Cat #3960). Compound 22 was available as a 5 mM stock solubilized in 100% DMSO (Sigma; Cat #D2650) and stored at −80° C. Assays were initiated by aspirating culture medium from each well followed by three washes in PBS to remove residual growth factors and serum. […]
On the second day of assay, wells were again aspirated and fed with 80 μl per well were added back containing RPMI 1640 base medium supplemented with 2.5% fatty acid free BSA, 10 ng/ml bFGF, and 3.125 μM Compound 22 plus 20 μl 5× stock of growth factors to yield a final concentration of 2% fatty acid free BSA, 8 ng/ml bFGF and 2.5 μM Compound 22 in assay. Positive control wells contained the same base medium supplemented with 2% fatty acid free BSA, 8 ng/ml bFGF and 100 ng/ml recombinant human activin A. Negative control samples contained the same base medium supplemented with 2% fatty acid free BSA and 8 ng/ml bFGF but omitted treatment with activin A.
At the conclusion of four-days of culture, assay plates were washed twice with PBS, fixed with 4% paraformaldehyde (Alexis Biochemical; Cat #ALX-350-011) at room temperature for 20 minutes, then washed three times with PBS and permeabilized with 0.5% Triton X-100 (Sigma; Cat #T8760-2) for 20 minutes at room temperature. Cells were washed again three times with PBS and blocked with 4% chicken serum (Invitrogen; Cat #16110082) in PBS for 30 minutes at room temperature. Primary antibody (goat anti-human SOX17; R&D Systems; cat #AF1924) was diluted 1:100 in 4% chicken serum and added to each well for one hour at room temperature. Alexa Fluor 488 conjugated secondary antibody (chicken anti-goat IgG; Molecular Probes; Cat #AZ1467) was diluted 1:200 in PBS and added to each sample well after washing three times with PBS. To counterstain nuclei, 4 μg/ml Hoechst 33342 (Invitrogen; Cat #H3570) was added for ten minutes at room temperature. Plates were washed once with PBS and left in 100 μl/well PBS for imaging.
Imaging was performed using an IN Cell Analyzer 1000 (GE Healthcare) utilizing the 51008bs dichroic for cells stained with Hoechst 33342 and Alexa Fluor 488. Exposure times were optimized from positive control wells and from untreated negative control wells stained with secondary antibody alone. Images from 15 fields per well were acquired to compensate for any cell loss during the bioassay and subsequent staining procedures. Measurements for total cell number and total SOX17 intensity were obtained from each well using IN Cell Developer Toolbox 1.7 (GE Healthcare) software. Segmentation for the nuclei was determined based on gray-scale levels (baseline range 100-300) and nuclear size. Averages and standard deviations were calculated for each replicate data set. Total SOX17 protein expression was reported as total intensity or integrated intensity, defined as total fluorescence of the cell multiplied by the area of the cell. Background was eliminated based on acceptance criteria of gray-scale ranges between 200 to 3500. […]

[1] = Activin A (with Wnt3a), positive control
[2] = No AA (with Wnt3a), FGF none, EGF none
[3] = No AA (with Wnt3a), FGF none, EGF(25 ng/ml)
[4] = No AA (with Wnt3a), FGF none, EGF(50 ng/ml)
[5] = No AA (with Wnt3a), FGF none, EGF(100 ng/ml)
[6] = No AA (with Wnt3a), FGF(25 ng/ml), EGF none
[7] = No AA (with Wnt3a), FGF(25 ng/ml), EGF(25 ng/ml)
[8] = No AA (with Wnt3a), FGF(25 ng/ml), EGF(50 ng/ml)
[9] = No AA (with Wnt3a), FGF(25 ng/ml), EGF(100 ng/ml)
[10] = No AA (with Wnt3a), FGF(50 ng/ml), EGF none
[11] = No AA (with Wnt3a), FGF(50 ng/ml), EGF(25 ng/ml)
[12] = No AA (with Wnt3a), FGF(50 ng/ml), EGF(50 ng/ml)
[13] = No AA (with Wnt3a), FGF(50 ng/ml), EGF(100 ng/ml)
[14] = No AA (with Wnt3a), FGF(100 ng/ml), EGF none
[15] = No AA (with Wnt3a), FGF(100 ng/ml), EGF(25 ng/ml)
[16] = No AA (with Wnt3a), FGF(100 ng/ml), EGF(50 ng/ml)
[17] = No AA (with Wnt3a), FGF(100 ng/ml), EGF(100 ng/ml)
[18] = No AA (without Wnt3a), FGF(50 ng/ml), EGF(50 ng/ml)
[19] = No AA (without Wnt3a), FGF(50 ng/ml), EGF(100 ng/ml)
[20] = No AA (without Wnt3a), FGF(100 ng/ml), EGF(50 ng/ml)
[21] = No AA (without Wnt3a), FGF(100 ng/ml), EGF(100 ng/ml)

## Activin A: recombinant human activin A (PeproTech), TGF-beta family member
[1]
  Cell Number, % of positive control: 100.00%
  Cell Number, Average Total Cell Number: 12676
  Sox17 Expression, % of positive control: 100.00%
  Sox17 Expression, Average Total Intensity: 2.72E+08

## O=C1CCN2CCN(CC2)Cc2cc(Cl)cc(c2)Nc2ncnc(n2)-c2cncc(c2)CCCN1 [Compound 34, 5-Chloro-1,8,10,12,16,22,26,32-octaazapentacyclo[24.2.2.1˜3.7˜0.1˜9,13˜0.1˜14.18˜]tritriaconta-3(33), 4,6,9(32), 10,12,14(31), 15,17-nonaen-23-one]
[2]
  Cell Number, % of positive control: 92.38%
  Cell Number, Average Total Cell Number: 11711
  Sox17 Expression, % of positive control: 60.68%
  Sox17 Expression, Average Total Intensity: 1.65E+08
[3]
  Cell Number, % of positive control: 126.63%
  Cell Number, Average Total Cell Number: 16052
  Sox17 Expression, % of positive control: 78.82%
  Sox17 Expression, Average Total Intensity: 2.14E+08
[4]
  Cell Number, % of positive control: 107.23%
  Cell Number, Average Total Cell Number: 13593
  Sox17 Expression, % of positive control: 71.52%
  Sox17 Expression, Average Total Intensity: 1.94E+08
[5]
  Cell Number, % of positive control: 103.90%
  Cell Number, Average Total Cell Number: 13170
  Sox17 Expression, % of positive control: 71.04%
  Sox17 Expression, Average Total Intensity: 1.93E+08
[6]
  Cell Number, % of positive control: 145.41%
  Cell Number, Average Total Cell Number: 18433
  Sox17 Expression, % of positive control: 91.72%
  Sox17 Expression, Average Total Intensity: 2.49E+08
[7]
  Cell Number, % of positive control: 148.63%
  Cell Number, Average Total Cell Number: 18841
  Sox17 Expression, % of positive control: 95.72%
  Sox17 Expression, Average Total Intensity: 2.60E+08
[8]
  Cell Number, % of positive control: 128.05%
  Cell Number, Average Total Cell Number: 16232
  Sox17 Expression, % of positive control: 84.79%
  Sox17 Expression, Average Total Intensity: 2.30E+08
[9]
  Cell Number, % of positive control: 73.44%
  Cell Number, Average Total Cell Number: 9309
  Sox17 Expression, % of positive control: 51.00%
  Sox17 Expression, Average Total Intensity: 1.39E+08
[10]
  Cell Number, % of positive control: 100.64%
  Cell Number, Average Total Cell Number: 12757
  Sox17 Expression, % of positive control: 61.10%
  Sox17 Expression, Average Total Intensity: 1.66E+08
[11]
  Cell Number, % of positive control: 139.79%
  Cell Number, Average Total Cell Number: 17720
  Sox17 Expression, % of positive control: 85.01%
  Sox17 Expression, Average Total Intensity: 2.31E+08
[12]
  Cell Number, % of positive control: 128.83%
  Cell Number, Average Total Cell Number: 16331
  Sox17 Expression, % of positive control: 83.11%
  Sox17 Expression, Average Total Intensity: 2.26E+08
[13]
  Cell Number, % of positive control: 128.87%
  Cell Number, Average Total Cell Number: 16336
  Sox17 Expression, % of positive control: 85.24%
  Sox17 Expression, Average Total Intensity: 2.32E+08
[14]
  Cell Number, % of positive control: 156.61%
  Cell Number, Average Total Cell Number: 19853
  Sox17 Expression, % of positive control: 95.45%
  Sox17 Expression, Average Total Intensity: 2.59E+08
[15]
  Cell Number, % of positive control: 156.83%
  Cell Number, Average Total Cell Number: 19880
  Sox17 Expression, % of positive control: 95.47%
  Sox17 Expression, Average Total Intensity: 2.59E+08
[16]
  Cell Number, % of positive control: 143.30%
  Cell Number, Average Total Cell Number: 18166
  Sox17 Expression, % of positive control: 86.30%
  Sox17 Expression, Average Total Intensity: 2.35E+08
[17]
  Cell Number, % of positive control: 88.68%
  Cell Number, Average Total Cell Number: 11241
  Sox17 Expression, % of positive control: 57.10%
  Sox17 Expression, Average Total Intensity: 1.55E+08
[18]
  Cell Number, % of positive control: 105.06%
  Cell Number, Average Total Cell Number: 13317
  Sox17 Expression, % of positive control: 74.08%
  Sox17 Expression, Average Total Intensity: 2.01E+08
[19]
  Cell Number, % of positive control: 111.93%
  Cell Number, Average Total Cell Number: 14189
  Sox17 Expression, % of positive control: 73.90%
  Sox17 Expression, Average Total Intensity: 2.01E+08
[20]
  Cell Number, % of positive control: 99.52%
  Cell Number, Average Total Cell Number: 12616
  Sox17 Expression, % of positive control: 66.21%
  Sox17 Expression, Average Total Intensity: 1.80E+08
[21]
  Cell Number, % of positive control: 65.23%
  Cell Number, Average Total Cell Number: 8269
  Sox17 Expression, % of positive control: 41.73%
Compound added to EGF and/or FGF4, single cells, no activin A
  SOX17 expression: significant enhancement of SOX17 expression
